Data: US20180057507A1, “INHIBITORS OF DUAL LEUCINE ZIPPER (DLK) KINASE FOR THE TREATMENT OF DISEASE” (Board of Regents, The University of Texas System, priority 2016, published 2018)

Each compound was assayed against T1, human DLK (Homo sapiens, UniProt Q12852) (assay: DLK Kd Determinations (KINOMEscan KdELECT, DiscoveRx)). Conditions: fusion protein of full length human DLK (amino acids 1-859) and NFkB DNA binding domain; qPCR readout; duplicate.
T1 sequence (Q12852 1-859): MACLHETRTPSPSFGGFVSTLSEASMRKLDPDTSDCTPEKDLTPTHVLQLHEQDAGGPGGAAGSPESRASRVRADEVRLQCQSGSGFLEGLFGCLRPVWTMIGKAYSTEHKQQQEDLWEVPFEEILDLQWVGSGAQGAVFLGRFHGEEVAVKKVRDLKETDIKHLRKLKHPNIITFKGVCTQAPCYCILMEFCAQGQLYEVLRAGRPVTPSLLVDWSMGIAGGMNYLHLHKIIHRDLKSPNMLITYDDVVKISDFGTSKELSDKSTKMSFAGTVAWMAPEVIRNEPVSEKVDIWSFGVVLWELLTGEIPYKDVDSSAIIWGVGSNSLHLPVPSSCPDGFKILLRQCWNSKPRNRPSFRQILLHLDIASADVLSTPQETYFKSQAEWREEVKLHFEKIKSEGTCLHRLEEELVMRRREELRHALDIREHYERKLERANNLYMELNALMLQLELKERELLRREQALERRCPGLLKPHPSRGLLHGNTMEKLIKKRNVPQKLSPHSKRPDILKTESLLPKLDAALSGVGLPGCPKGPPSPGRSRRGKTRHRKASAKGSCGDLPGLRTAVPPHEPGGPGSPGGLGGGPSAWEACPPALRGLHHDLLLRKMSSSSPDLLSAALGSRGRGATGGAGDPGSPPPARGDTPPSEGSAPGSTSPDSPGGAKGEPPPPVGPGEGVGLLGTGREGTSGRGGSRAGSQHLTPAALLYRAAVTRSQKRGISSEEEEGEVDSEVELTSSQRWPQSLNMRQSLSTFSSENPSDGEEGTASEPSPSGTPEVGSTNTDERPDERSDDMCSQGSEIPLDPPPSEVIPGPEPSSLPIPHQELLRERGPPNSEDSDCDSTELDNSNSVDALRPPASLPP
Design: full length of human DLK (amino acids 1-859); host or cells: transiently transfected HEK293 cells; unpurified extract
Description: The DLK dissociation constants (Kd) have been determined in the KINOMEscan KdELECT Service at DiscoveRx.
A fusion protein of full length of human DLK (amino acids 1-859) and the DNA binding domain of NFkB was expressed in transiently transfected HEK293 cells. From these HEK 293 cells, extracts were prepared in M-PER extraction buffer (Pierce) in the presence of Protease Inhibitor Cocktail Complete (Roche) and Phosphatase Inhibitor Cocktail Set II (Merck) per manufacturers' instructions. The DLK fusion protein was labeled with a chimeric double-stranded DNA tag containing the NFkB binding site (5′-GGGAATTCCC-3′) fused to an amplicon for qPCR readout, which was added directly to the expression extract (the final concentration of DNA-tag in the binding reaction is 0.1 nM).
Streptavidin-coated magnetic beads (Dynal M280) were treated with a biotinylated small molecule ligand for 30 minutes at room temperature to generate affinity resins the binding assays. The liganded beads were blocked with excess biotin and washed with blocking buffer (SeaBlock (Pierce), 1% BSA, 0.05% Tween 20, 1 mM DTT) to remove unbound ligand and to reduce nonspecific binding.
Extracts were used directly in binding assays without any enzyme purification steps at a ≧10,000-fold overall stock dilution (final DNA-tagged enzyme concentration <0.1 nM). Extracts were loaded with DNA-tag and diluted into the binding reaction in a two step process. First extracts were diluted 1:100 in 1× binding buffer (PBS/0.05% Tween 20/10 mM DTT/0.1% BSA/2 μg/ml sonicated salmon sperm DNA) containing 10 nM DNA-tag. This dilution was allowed to equilibrate at room temperature for 15 minutes and then subsequently diluted 1:100 in 1× binding buffer. Test compounds were prepared as 111× stocks in 100% DMSO. Kds were determined using an 11-point 3-fold compound dilution series with three DMSO control points. All compounds for Kd measurements are distributed by acoustic transfer (non-contact dispensing) in 100% DMSO. The compounds were then diluted directly into the assays such that the final concentration of DMSO was 0.9%. All reactions performed in polypropylene 384-well plates. Each was a final volume of 0.02 mL. Assays were incubated with shaking for 1 hour at room temperature. Then the beads were pelleted and washed with wash buffer (1×PBS, 0.05% Tween 20) to remove displaced kinase and test compound. The washed based were re-suspended in elution buffer (1×PBS, 0.05% Tween 20, 0.5 μM non-biotinylated affinity ligand) and incubated at room temperature with shaking for 30 minutes. The kinase concentration in the eluates was measured by qPCR. qPCR reactions were assembled by adding 2.5 μL of kinase eluate to 7.5 μL of qPCR master mix containing 0.15 μM amplicon primers and 0.15 μM amplicon probe. The qPCR protocol consisted of a 10 minute hot start at 95° C., followed by 35 cycles of 95° C. for 15 seconds, 60° C. for 1 minute.
Test compounds were prepared as 111× stocks in 100% DMSO. Kds were determined using an 11-point 3-fold compound dilution series with three DMSO control points. All compounds for Kd measurements are distributed by acoustic transfer (non-contact dispensing) in 100% DMSO. The compounds were then diluted directly into the assays such that the final concentration of DMSO was 0.9%. The Kds were determined using a compound top concentration of 30,000 nM. Kd measurements were performed in duplicate.
Binding constants (Kds) were calculated with a standard dose-response curve using the Hill equation: […]
The Hill Slope was set to −1. Curves were fitted using a non-linear least square fit with the Levenberg-Marquardt algorithm (Levenberg, K., A method for the solution of certain non-linear problems in least squares, Q. Appl. Math. 2, 164-168 (1944)). See also Fabian, M. A. et al. A small molecule-kinase interaction map for clinical kinase inhibitors. Nat. Biotechnol. […]
With `Nc1ncc(-c2cn([C@H]3[C@@H]4CNC[C@@H]43)c(C3CC3)n2)cc1C(F)(F)F` [Example 71, 5-(1-((1R,5S,6s)-3-azabicyclo[3.1.0]hexan-6-yl)-2-cyclopropyl-1H-imidazol-4-yl)-3-(trifluoromethyl)pyridin-2-amine] the Kd was 87 nM. Compound `Nc1ncc(-c2cn([C@H]3[C@@H]4CN(C5COC5)C[C@@H]43)c(C3CCC3)n2)cc1OC(F)F` [Example 57, 5-(2-cyclobutyl-1-((1R,5S,6s)-3-(oxetan-3-yl)-3-azabicyclo[3.1.0]hexan-6-yl)-1H-imidazol-4-yl)-3-(difluoromethoxy)pyridin-2-amine] has a Kd of 180 nM. For `CC(C)c1nc(-c2cnc(N)c(C(F)(F)F)c2)cn1[C@H]1[C@@H]2CN(C3CCOCC3)C[C@@H]21` [Example 13, 5-(2-isopropyl-1-((1R,5S,6s)-3-(tetrahydro-2H-pyran-4-yl)-3-azabicyclo[3.1.0]hexan-6-yl)-1H-imidazol-4-yl)-3-(trifluoromethyl)pyridin-2-amine], the Kd was 78 nM. `Nc1ncc(-c2cn([C@H]3[C@@H]4CN(CC(F)(F)F)C[C@@H]43)c(CC3CC3)n2)cc1C(F)(F)F` [Example 79, 5-(2-(cyclopropylmethyl)-1-((1R,5S,6s)-3-(2,2,2-trifluoroethyl)-3-azabicyclo[3.1.0]hexan-6-yl)-1H-imidazol-4-yl)-3-(trifluoromethyl)pyridin-2-amine] showed a Kd of 180 nM. For `CC1OCCn2cc(-c3cnc(N)c(C(F)(F)F)c3)nc21` (stereo not shown) [Example 5, 5-(8-methyl-6,8-dihydro-5H-imidazo[2,1-c][1,4]oxazin-2-yl)-3-(trifluoromethyl)pyridin-2-amine], the Kd was 3300 nM. `CC(C)c1nc(-c2cnc(N)c(C(F)(F)F)c2)cn1CC1CCOCC1` [Example 34, 5-(2-isopropyl-1-((tetrahydro-2H-pyran-4-yl)methyl)-1H-imidazol-4-yl)-3-(trifluoromethyl)pyridin-2-amine] gave a Kd of 870 nM. `CC(=O)N1C[C@@H]2[C@H](C1)[C@H]2n1cc(-c2cnc(N)c(C(F)(F)F)c2)nc1CC(F)(F)F` [Example 82, 1-((1R,5S,6s)-6-(4-(6-amino-5-(trifluoromethyl)pyridin-3-yl)-2-(2,2,2-trifluoroethyl)-1H-imidazol-1-yl)-3-azabicyclo[3.1.0]hexan-3-yl)ethan-1-one] gave a Kd of 97 nM. With `CC(C)c1nc(-c2cnc(N)c(OC(F)F)c2)cn1[C@H]1[C@@H]2CN(CC(F)F)C[C@@H]21` [Example 112, 5-(1-((1R,5S,6s)-3-(2,2-difluoroethyl)-3-azabicyclo[3.1.0]hexan-6-yl)-2-isopropyl-1H-imidazol-4-yl)-3-(difluoromethoxy)pyridin-2-amine] the Kd was 160 nM. `Nc1ncc(-c2cn([C@H]3[C@@H]4CN(CC(F)(F)F)C[C@@H]43)c(CC3CC3)n2)cc1OC(F)F` [Example 102, 5-(2-(cyclopropylmethyl)-1-((1R,5S,6s)-3-(2,2,2-trifluoroethyl)-3-azabicyclo[3.1.0]hexan-6-yl)-1H-imidazol-4-yl)-3-(difluoromethoxy)pyridin-2-amine] gave a Kd of 280 nM. Work on `CC(C)c1nc(-c2cnc(N)c(C(F)(F)F)c2)cn1Cc1cccnc1` [Example 32, 5-(2-isopropyl-1-(pyridin-3-ylmethyl)-1H-imidazol-4-yl)-3-(trifluoromethyl)pyridin-2-amine] yielded a Kd of 940 nM. `CC(C)c1nc(-c2cnc(N)c(C(F)(F)F)c2)cn1C1CCC(O)CC1` (stereo not shown) [Example 33, 4-(4-(6-amino-5-(trifluoromethyl)pyridin-3-yl)-2-isopropyl-1H-imidazol-1-yl)cyclohexan-1-ol] was tested, and the Kd was 130 nM. With `CC(C)c1nc(-c2cnc(N)c(C(F)(F)F)c2)cn1[C@H]1[C@@H]2CN(CC(F)(F)F)C[C@@H]21` [Example 18, 5-(2-isopropyl-1-((1R,5S,6s)-3-(2,2,2-trifluoroethyl)-3-azabicyclo[3.1.0]hexan-6-yl)-1H-imidazol-4-yl)-3-(trifluoromethyl)pyridin-2-amine] the Kd was 720 nM. With `CC(C)c1nc(-c2cnc(N)c(C(F)(F)F)c2)cn1C1CC2(COC2)C1` [Example 23, 5-(2-isopropyl-1-(2-oxaspiro[3.3]heptan-6-yl)-1H-imidazol-4-yl)-3-(trifluoromethyl)pyridin-2-amine] the Kd was 220 nM. Work on `CC(C)c1nc(-c2cnc(N)c(C(F)(F)F)c2)cn1[C@H]1[C@@H]2CN(CCF)C[C@@H]21` [Example 16, 5-(1-((1R,5S,6s)-3-(2-fluoroethyl)-3-azabicyclo[3.1.0]hexan-6-yl)-2-isopropyl-1H-imidazol-4-yl)-3-(trifluoromethyl)pyridin-2-amine] yielded a Kd of 68 nM. In the case of `Nc1ncc(-c2cn([C@H]3[C@@H]4CN(CC(F)F)C[C@@H]43)c(CC3CC3)n2)cc1OC(F)(F)F` [Example 98, 5-(2-(cyclopropylmethyl)-1-((1R,5S,6s)-3-(2,2-difluoroethyl)-3-azabicyclo[3.1.0]hexan-6-yl)-1H-imidazol-4-yl)-3-(trifluoromethoxy)pyridin-2-amine], the Kd is reported as 93 nM. `CC(=O)N1C[C@@H]2[C@H](C1)[C@H]2n1cc(-c2cnc(N)c(OC(F)F)c2)nc1C1CC1` [Example 118, 1-((1R,5S,6s)-6-(4-(6-amino-5-(difluoromethoxy)pyridin-3-yl)-2-cyclopropyl-1H-imidazol-1-yl)-3-azabicyclo[3.1.0]hexan-3-yl)ethan-1-one] gave a Kd of 62 nM. With `Nc1ncc(-c2cn([C@H]3[C@@H]4CNC[C@@H]43)c(CC(F)(F)F)n2)cc1C(F)(F)F` [Example 120, 5-(1-((1R,5S,6s)-3-azabicyclo[3.1.0]hexan-6-yl)-2-(2,2,2-trifluoroethyl)-1H-imidazol-4-yl)-3-(trifluoromethyl)pyridin-2-amine] the Kd was 40 nM. With `COCCN1C[C@@H]2[C@H](C1)[C@H]2n1cc(-c2cnc(N)c(OC(F)F)c2)nc1C1CC1` [Example 107, 5-(2-cyclopropyl-1-((1R,5S,6s)-3-(2-methoxyethyl)-3-azabicyclo[3.1.0]hexan-6-yl)-1H-imidazol-4-yl)-3-(difluoromethoxy)pyridin-2-amine] the Kd was 74 nM. Compound `Nc1ncc(-c2cn3c(n2)C(C2CC2)OCC3)cc1C(F)(F)F` (stereo not shown) [Example 49, 5-(8-cyclopropyl-5,6-dihydro-8H-imidazo[2,1-c][1,4]oxazin-2-yl)-3-(trifluoromethyl)pyridin-2-amine] has a Kd of 1200 nM.
